From ChEMBL document CHEMBL1201862, “PubChem BioAssay data set” (2004)
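Exposure lasted 48 hours, with cells grown in 96-well plates and compounds tested at five concentrations. Here, GI50 denotes the concentration required for 50% inhibition of growth.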 The source made the active and inactive calls. Rule as the data show it: active = GI50 up to about 1.1 µM and inactive = higher.

Experiments:
Test in all cases: growth of human tumour cells (NCI), 48 h
[1] = test system: ACHN
[2] = test system: DMS-114
[3] = test system: HCT-15
[4] = test system: LOX IMVI
[5] = test system: M14
[6] = test system: MOLT-4
[7] = test system: NCI-H226
[8] = test system: OVCAR-8
[9] = test system: SF-268
[10] = test system: SF-539
[11] = test system: SK-MEL-28
[12] = test system: SN12C
[13] = test system: SNB-75
[14] = test system: UACC-62
[15] = test system: UO-31
[16] = test system: NCI-H522

| Compound | GI50 [1] | GI50 [2] | GI50 [3] [µM] | GI50 [4] | GI50 [5] | GI50 [6] | GI50 [7] | GI50 [8] | GI50 [9] | GI50 [10] | GI50 [11] | GI50 [12] | GI50 [13] | GI50 [14] | GI50 [15] | GI50 [16] |
| --- | --- | --- | --- | --- | --- | --- | --- | --- | --- | --- | --- | --- | --- | --- | --- | --- |
| CC1(C)CC[C@]2(C(=O)O)CCC3(C)C(=CCC4[C@@]5(C)CC[C@H](OC6OCC(O)C(O)C6OC6OC(CO)C(O)C(O)C6O)C(C)(C)C5CC[C@]43C)C2C1 (some centres not stated) | 1.94 µM (inactive) | 2.04 µM (inactive) | 2.17 | 1.95 µM (inactive) | 1.87 µM (inactive) | 2.98 µM (inactive) | 1.55 µM (inactive) | 1.95 µM (inactive) | 2.4 µM (inactive) | 2.22 µM (inactive) | 2.33 µM (inactive) | 1.89 µM (inactive) | 2.2 µM (inactive) | 1.83 µM (inactive) | 2.16 µM (inactive) |  |
| CCOC(=O)C(=O)Nc1c(F)cc(F)cc1Br | > 100 µM (inactive) | > 100 µM (inactive) | > 100 | > 100 µM (inactive) | > 100 µM (inactive) | > 100 µM (inactive) | > 100 µM (inactive) | > 100 µM (inactive) | > 100 µM (inactive) | > 100 µM (inactive) | > 100 µM (inactive) | > 100 µM (inactive) | > 100 µM (inactive) | > 100 µM (inactive) | > 100 µM (inactive) |  |
| Cc1cc(CC(O)c2ccc(Cl)c(Cl)c2)nc(O)n1 (configuration not stated) | 31.3 µM (inactive) | 8.49 µM (inactive) | 30.7 |  | 32.8 µM (inactive) | > 10 µM (inactive) | 26.9 µM (inactive) | 46.1 µM (inactive) | 38.5 µM (inactive) |  | > 100 µM (inactive) | 86.3 µM (inactive) | 17.7 µM (inactive) | 50.9 µM (inactive) | 54.1 µM (inactive) | 20.2 µM (inactive) |
| COC(OC)[C@@H](C)[C@H](O)[C@](C)(O)C1OC(C)(C)OC(C(C)C=C(C)C)C1C (some centres not stated) | > 100 µM (inactive) | 94.6 µM (inactive) | > 100 | > 100 µM (inactive) | > 100 µM (inactive) | 72.4 µM (inactive) | > 100 µM (inactive) | > 100 µM (inactive) | > 100 µM (inactive) | > 100 µM (inactive) | > 100 µM (inactive) | > 100 µM (inactive) | > 100 µM (inactive) | > 100 µM (inactive) | 80.7 µM (inactive) | > 100 µM (inactive) |
| CCc1cccc(C(C)CC)c1NC(=O)C(=O)C(CC(=O)Nc1ccc(Cl)c(Cl)c1)C(=O)OC (configuration not stated) | 9.71 µM (inactive) | 36.8 µM (inactive) | 20.2 |  | 57.1 µM (inactive) | 71.3 µM (inactive) | > 100 µM (inactive) | > 100 µM (inactive) | 64 µM (inactive) | > 100 µM (inactive) | > 100 µM (inactive) | > 100 µM (inactive) | 21 µM (inactive) | 3.59 µM (inactive) | 73.1 µM (inactive) | 38.5 µM (inactive) |
| CC(=O)OCC1OC(OC2CC3C(C)(C)C(OC(C)=O)CC[C@]3(C)C3CCC45CC4(CC[C@H]5C(C)CC(O)C4OC4(C)C)[C@]23C)C(O)C(O)C1O (some centres not stated) | 2.21 µM (inactive) | 1.58 µM (inactive) | 1.55 | 1.63 µM (inactive) | 2.03 µM (inactive) | 0.189 µM (active) | 5.06 µM (inactive) | 2.2 µM (inactive) | 2.44 µM (inactive) | 3.89 µM (inactive) | 2.03 µM (inactive) | 2.29 µM (inactive) | 2.27 µM (inactive) | 1.99 µM (inactive) | 3.68 µM (inactive) | 1.59 µM (inactive) |
| COc1ccccc1NC(=O)C(CC(C(=O)Nc1ccccc1OC)/C(C)=N/NC(=O)c1ccccc1O)/C(C)=N/NC(=O)c1ccccc1O (configuration not stated) | 98.6 µM (inactive) | 70.8 µM (inactive) |  | > 100 µM (inactive) | > 100 µM (inactive) | 47.5 µM (inactive) | 60.3 µM (inactive) | 75 µM (inactive) | > 100 µM (inactive) | 54.2 µM (inactive) | > 100 µM (inactive) | > 100 µM (inactive) | 96.6 µM (inactive) |  | 40.4 µM (inactive) | 64.4 µM (inactive) |
| CSc1ccc2c(cc1=O)[C@@H](NC(=O)c1ccc(F)cc1)CCc1cc(O)c(O)c(O)c1-2 | > 100 µM (inactive) | > 100 µM (inactive) | > 100 | > 100 µM (inactive) | > 100 µM (inactive) | > 100 µM (inactive) | > 100 µM (inactive) | > 100 µM (inactive) | > 100 µM (inactive) | > 100 µM (inactive) | > 100 µM (inactive) | > 100 µM (inactive) | > 100 µM (inactive) | > 100 µM (inactive) | > 100 µM (inactive) | > 100 µM (inactive) |
| N=C(N)NS(=O)(=O)c1ccc(NC(=O)c2cccc3c(Nc4ccc(S(=O)(=O)N=C(N)N)cc4)c4ccc(Cl)cc4nc23)cc1 | 49.7 µM (inactive) | 31.2 µM (inactive) | > 100 | 37.2 µM (inactive) | 70.1 µM (inactive) | 56.2 µM (inactive) |  | 61.2 µM (inactive) | 48.4 µM (inactive) | > 100 µM (inactive) | 75 µM (inactive) | 75.5 µM (inactive) | 30.8 µM (inactive) | 33.3 µM (inactive) | 50.8 µM (inactive) | 30.4 µM (inactive) |
| CN(C)CCCN1N=Nc2cccc3cccc1c23 | 56.1 µM (inactive) | > 42.1 µM (inactive) | 38.1 | 41.9 µM (inactive) | > 43.4 µM (inactive) | 29 µM (inactive) | > 100 µM (inactive) | > 77.3 µM (inactive) | > 85.9 µM (inactive) | > 60.7 µM (inactive) | > 100 µM (inactive) | 63.8 µM (inactive) | > 100 µM (inactive) | > 100 µM (inactive) | > 64.6 µM (inactive) | 50.9 µM (inactive) |
| COc1cccc(C2c3cc4c(cc3OC(O)(CO)C2C(=O)O)OCO4)c1.COc1cccc(C2c3cc4c(cc3OC3(O)COC(=O)C23)OCO4)c1 (configuration not stated) | 49.5 µM (inactive) | 49.4 µM (inactive) | 43.9 | 52.1 µM (inactive) | 48.8 µM (inactive) | 35.7 µM (inactive) | 50 µM (inactive) | 46 µM (inactive) | 40.4 µM (inactive) | > 100 µM (inactive) | 26.9 µM (inactive) | 55.3 µM (inactive) | 14.5 µM (inactive) | 33.5 µM (inactive) | 64.3 µM (inactive) |  |
| Nc1ncnc2c1ncn2CCCC(c1ccccc1)P(=O)(O)O (configuration not stated) | > 100 µM (inactive) | > 100 µM (inactive) | > 100 | > 100 µM (inactive) |  |  | > 100 µM (inactive) | > 100 µM (inactive) | > 100 µM (inactive) | > 100 µM (inactive) | > 100 µM (inactive) | > 100 µM (inactive) | > 100 µM (inactive) | > 100 µM (inactive) | > 100 µM (inactive) | > 100 µM (inactive) |
| N#CC(C(=N/NC(N)=S)/C(=N\NC(N)=S)C(C#N)c1ccccc1)c1ccccc1 (configuration not stated) | > 10 µM (inactive) | > 10 µM (inactive) | > 10 | > 10 µM (inactive) | > 10 µM (inactive) | > 10 µM (inactive) | > 10 µM (inactive) | > 10 µM (inactive) | > 10 µM (inactive) | > 10 µM (inactive) | > 10 µM (inactive) | > 10 µM (inactive) | > 10 µM (inactive) | > 10 µM (inactive) | > 10 µM (inactive) | > 10 µM (inactive) |
